In patent US8592421B2, “Cyclic bioisosters of purine system derivatives and a pharmaceutical composition based thereon” (priority 2003, dated 2013):

Tests used:
[1] = test system: plasma hemostasis; experiment: Prothrombin time after intravenous administration; type: in vivo, rabbit; conditions: for effect on the prothrombin time index: doses of 15.0, 30.0, 60.0 mg/kg
Procedure: (§1) The static parameters of the blood and plasma coagulation (partial activated thromboplastin time, thrombin time, maximum coagulation activity (test for auto coagulation) were determined using the Behnk Electronic coagulometer (Germany). The operating principle of this instrument is based on the fact that the formed blood clot breaks the contacts of the pulse counter in the flask-pin circuit, said pin permanently oscillating in a vertical plane. The moment of formation of the clot is registered by stopping the stop watch hand.
(§2) The measurements were effected at a constant temperature of 37° C. maintained by a temperature control unit.
The method of its determination is based on estimation of the coagulation of citrate or oxalic blood plasma, when it is mixed with thromboplastin and a calcium chloride solution. Since under these conditions the time of formation of the clot depends on the content of II, VII, IX and X factors in the investigated plasma sample, now the test is called “thromboplastin time by Quick” or “activity thromboplastin complex”.
Citrate blood containing 1 part of citrate per 9 parts of native blood was centrifuged at 3000 rev/min for 10 minutes to obtain plasma deprived of thrombocytes.
Added into a test tube in a water bath were 0.1 ml of plasma and 0.1 ml of a thromboplastin solution.

[2] = test system: plasma hemostasis; experiment: Autocoagulation test (coagulating activity A) after intravenous administration; type: in vivo, rabbit; conditions: for effect on the coagulation activity according to the autocoagulation test: doses 15.0, 30.0, 60.0 mg/kg
Procedure: The investigations were performed on 72 rabbits of the “Chinchilla” breed with a mass of 2.5±0.3 kg, who were administered which solutions of compounds 2, 15, 21, 37 in doses of 15, 30 and 60 mg/kg intravenously. The experiments included the thrombin-test (series No. 7300) and the coagulability-test (series No. 5000) purchased from the scientific-and-production association (SPA) “Renam”, thromboplastin (series No. 240600) and calcium chloride purchased from the SPA “MedioLab”
as §1, §2
Compounds 2, 15, 21, 37 according to the invention at a concentration of 15, 30 and 60 mg/kg were intravenously administered to the above experimental animals and their blood samples were taken off 15, 30, 60 and 120 minutes after the administration.
Added to 0.2 ml of plasma obtained by centrifuging citrate blood at 1500 rev/min within 10 minutes was a glycosylate-calcium mixture (2.0 ml 0.222% CaCl2+0.1 ml of investigated citrate blood) 4, 6, 8, 10 minutes after the preparation of this mixture and the time of coagulation in the sample was determined.
The obtained results in seconds were translated in factors of coagulating activity A in percent, which specify the state of both the coagulating and anticoagulating parts of the blood coagulating system. The results of the experiments are given in Table 7. • The effect of the compounds according to the invention on the values of coagulating activity A by the data of autocoagulation test with intravenous administration of the compounds to the rabbits

[3] = Electrochemical activity: polarographic reduction on mercury dripping electrode; type: physicochemical; conditions: for number of electrons participating in the reduction reaction: calculated with Geirovsky-Ilkovich equation; for i: 2.0% sodium chloride background, 9·10^−4 M; for i / −E1/2: 37° C., forward trace, average for the group of compounds; for −E1/2: vs SCE; for half-wave potential more positive at reverse stroke compared to forward stroke: polarograms of reverse stroke
[4] = 15.0 mg/kg intravenously, after 15 minutes, control 11.8 ± 0.1
[5] = 15.0 mg/kg intravenously, after 30 minutes, control 11.8 ± 0.1
[6] = 15.0 mg/kg intravenously, after 60 minutes, control 11.8 ± 0.1
[7] = 15.0 mg/kg intravenously, after 120 minutes, control 11.8 ± 0.1
[8] = 30.0 mg/kg intravenously, after 15 minutes, control 11.2 ± 0.1
[9] = 30.0 mg/kg intravenously, after 30 minutes, control 11.2 ± 0.1
[10] = 30.0 mg/kg intravenously, after 60 minutes, control 11.2 ± 0.1
[11] = 30.0 mg/kg intravenously, after 120 minutes, control 11.2 ± 0.1
[12] = 60.0 mg/kg intravenously, after 15 minutes, control 12.0 ± 0.1
[13] = 60.0 mg/kg intravenously, after 30 minutes, control 12.0 ± 0.1
[14] = 60.0 mg/kg intravenously, after 60 minutes, control 12.0 ± 0.1
[15] = 60.0 mg/kg intravenously, after 120 minutes, control 12.0 ± 0.1
[16] = 15.0 mg/kg intravenously, after 15 minutes, control 85.6
[17] = 15.0 mg/kg intravenously, after 30 minutes, control 85.6
[18] = 15.0 mg/kg intravenously, after 60 minutes, control 85.6
[19] = 15.0 mg/kg intravenously, after 120 minutes, control 85.6
[20] = 30.0 mg/kg intravenously, after 15 minutes, control 70.0
[21] = 30.0 mg/kg intravenously, after 30 minutes, control 70.0
[22] = 30.0 mg/kg intravenously, after 60 minutes, control 70.0
[23] = 30.0 mg/kg intravenously, after 120 minutes, control 70.0
[24] = 60.0 mg/kg intravenously, after 15 minutes, control 65.9
[25] = 60.0 mg/kg intravenously, after 30 minutes, control 65.9
[26] = 60.0 mg/kg intravenously, after 60 minutes, control 65.9
[27] = 60.0 mg/kg intravenously, after 120 minutes, control 65.9

SMILES	prothrombin time, T [1, 4]	prothrombin time, T [1, 5]	prothrombin time, T [1, 6]	prothrombin time, T [1, 7]	prothrombin time, T [1, 8]	prothrombin time, T [1, 9]	prothrombin time, T [1, 10]	prothrombin time, T [1, 11]	prothrombin time, T [1, 12]	prothrombin time, T [1, 13]	prothrombin time, T [1, 14]	prothrombin time, T [1, 15]	effect on the prothrombin time index [1]	coagulating activity A (autocoagulation test) [2, 16]	coagulating activity A (autocoagulation test) [2, 17]	coagulating activity A (autocoagulation test) [2, 18]	coagulating activity A (autocoagulation test) [2, 19]	coagulating activity A (autocoagulation test) [2, 20]	coagulating activity A (autocoagulation test) [2, 21]	coagulating activity A (autocoagulation test) [2, 22]	also measured
Nc1ccnc2c(=O)n([C@@H]3O[C@H](CO)[C@@H](O)[C@H]3O)[nH]c(=O)c12 [Compound 2, 4-amino-7-(β-D-ribofuranosile)pyrido[2,3-d]-6H-pyridazine-5,8-dione]	11.7 ± 0.2 s	11.5 ± 0.2 s	11.4 ± 0.2 s	11.7 ± 0.1 s	11.1 ± 0.2 s	11.0 ± 0.1 s	11.3 ± 0.1 s	11.2 ± 0.2 s	12.0 ± 0.1 s	11.9 ± 0.2 s	12.1 ± 0.2 s	11.9 ± 0.1 s	have no effect on the prothrombin time index	80.2%	100.0%	87.4%	98.0%	98.4%	71.2%	104.2%	coagulating activity A (autocoagulation test) [2, 23]: 70.9%; coagulating activity A (autocoagulation test) [2, 24]: 72.3%; coagulating activity A (autocoagulation test) [2, 25]: 60.8%; coagulating activity A (autocoagulation test) [2, 26]: 62.5%; coagulating activity A (autocoagulation test) [2, 27]: 65.7%; effect on the coagulation activity according to the autocoagulation test [2]: have no effect on the coagulation activity
Nc1ncc2c(=O)[nH][nH]c(=O)c2n1 [Compound 36, 2-amino-pyrimido[4,5-d]-6H-pyridazine-5,8-dione]	–	–	–	–	–	–	–	–	–	–	–	–	–	–	–	–	–	–	–	–	number of electrons participating in the reduction reaction [3]: 3.5; i ([3]; pH 7.0): 0.30 ± 0.05 mkA; −E1/2 ([3]; pH 7.0): 0.08 ± 0.02 V; i ([3]; pH 7.2): 0.26 ± 0.02 mkA; −E1/2 ([3]; pH 7.2): 0.085 ± 0.015 V; i ([3]; pH 7.4): 0.30 ± 0.03 mkA; −E1/2 ([3]; pH 7.4): 0.085 ± 0.02 V; i ([3]; pH 7.6): 0.30 ± 0.02 mkA; −E1/2 ([3]; pH 7.6): 0.09 ± 0.02 V
O=c1[nH][nH]c(=O)c2c(Br)ncnc12.[K] [Compound 37, potassium salt of 4-bromine-pyrimido[4,5-D]-6H-pyridazine-5,8-dione]	11.6 ± 0.2 s	11.6 ± 0.1 s	11.5 ± 0.2 s	11.8 ± 0.1 s	11.3 ± 0.1 s	11.2 ± 0.2 s	11.4 ± 0.1 s	11.1 ± 0.1 s	12.1 ± 0.1 s	12.0 ± 0.1 s	12.1 ± 0.2 s	12.0 ± 0.1 s	have no effect on the prothrombin time index	82.1%	102.8%	88.7%	100.6%	99.8%	68.3%	105.8%	coagulating activity A (autocoagulation test) [2, 23]: 70.4%; coagulating activity A (autocoagulation test) [2, 24]: 74.3%; coagulating activity A (autocoagulation test) [2, 25]: 63.0%; coagulating activity A (autocoagulation test) [2, 26]: 64.2%; coagulating activity A (autocoagulation test) [2, 27]: 66.3%; effect on the coagulation activity according to the autocoagulation test [2]: have no effect on the coagulation activity
Nc1cnc2c(=O)n([C@@H]3O[C@H](CO)[C@@H](O)[C@H]3O)[nH]c(=O)c2n1.[Na] [Compound 21, sodium salt of 3-amino-7-(β-D-ribofuranosile)pyrazine[2,3-d]-6H-pyridazine-5,8-dione]	11.4 ± 0.2 s	11.5 ± 0.1 s	11.3 ± 0.1 s	11.5 ± 0.2 s	11.2 ± 0.1 s	11.2 ± 0.1 s	11.3 ± 0.2 s	11.2 ± 0.2 s	12.0 ± 0.2 s	11.8 ± 0.1 s	12.1 ± 0.1 s	12.0 ± 0.2 s	have no effect on the prothrombin time index	81.4%	101.3%	86.5%	97.4%	97.2%	69.1%	103.7%	coagulating activity A (autocoagulation test) [2, 23]: 71.0%; coagulating activity A (autocoagulation test) [2, 24]: 71.9%; coagulating activity A (autocoagulation test) [2, 25]: 62.1%; coagulating activity A (autocoagulation test) [2, 26]: 63.7%; coagulating activity A (autocoagulation test) [2, 27]: 66.2%; effect on the coagulation activity according to the autocoagulation test [2]: have no effect on the coagulation activity
O=c1[nH]n([C@@H]2O[C@H](CO)[C@@H](O)[C@H]2O)c(=O)c2nc(O)cnc12.[Na].[Na] [Compound 23, disodium salt of 2-hydroxy-7-(β-D-ribofuranosile)pyrazine[2,3—Cl]-6H-pyridazine-5,8-dione]	–	–	–	–	–	–	–	–	–	–	–	–	–	–	–	–	–	–	–	–	number of electrons participating in the reduction reaction [3]: 3.72; i ([3]; pH 7.0): 0.32 ± 0.03 mkA; −E1/2 ([3]; pH 7.0): 0.16 ± 0.02 V; i ([3]; pH 7.2): 0.33 ± 0.04 mkA; −E1/2 ([3]; pH 7.2): 0.19 ± 0.02 V; i ([3]; pH 7.4): 0.34 ± 0.03 mkA; −E1/2 ([3]; pH 7.4): 0.175 ± 0.01 V; i ([3]; pH 7.6): 0.34 ± 0.02 mkA; −E1/2 ([3]; pH 7.6): 0.16 ± 0.015 V; half-wave potential more positive at reverse stroke compared to forward stroke [3]: 20.0 mV
O=c1[nH][nH]c(=O)c2nccnc12.[Li] [Compound 25, lithium salt of pyrazine[2,3-d]-6H-pyridazine-5,8-dione]	–	–	–	–	–	–	–	–	–	–	–	–	–	–	–	–	–	–	–	–	number of electrons participating in the reduction reaction [3]: 3.72; i ([3]; pH 7.0): 0.32 ± 0.03 mkA; −E1/2 ([3]; pH 7.0): 0.16 ± 0.02 V; i ([3]; pH 7.2): 0.33 ± 0.04 mkA; −E1/2 ([3]; pH 7.2): 0.19 ± 0.02 V; i ([3]; pH 7.4): 0.34 ± 0.03 mkA; −E1/2 ([3]; pH 7.4): 0.175 ± 0.01 V; i ([3]; pH 7.6): 0.34 ± 0.02 mkA; −E1/2 ([3]; pH 7.6): 0.16 ± 0.015 V; half-wave potential more positive at reverse stroke compared to forward stroke [3]: 20.0 mV
